Among the test systems are A498 renal; MOLT-4 leukemia; NCI-H460 lung; MALME-3M melanoma; HCC-2998 colon; SK-MEL-28 melanoma; COLO 205 colon; IGROV1 ovarian; ACHN renal; M14 melanoma.
Assay in all cases: NCI tumour cell line growth inhibition, 48 h

SMILES strings stand for the structures.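 Results reflect a 48-hour exposure of cells in 96-well plates to compound at five concentrations. At the GI50, growth is halved. TGI denotes the concentration required for complete inhibition of growth.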

For `O=C1c2c(O)cccc2C(C2OC(CO)C(O)C(O)C2O)c2cc(CO)cc(O)c21` (centres undefined), the TGI in the test with A498 renal, with MOLT-4 leukemia, in the test with NCI-H460 lung, with MALME-3M melanoma, in the test with HCC-2998 colon and in the test on SK-MEL-28 melanoma was more than 100 µM each time. For the same compound, the TGI with COLO 205 colon, in the test with IGROV1 ovarian, with ACHN renal and in the test on M14 melanoma was more than 100 µM each time.
With `Cc1cccc(C(C)C)c1NC(=O)CC1C(=O)Nc2ccccc2S1(=O)=O` (centres undefined), the TGI is more than 54.2 µM with A498 renal; 10.2 µM in the test with MOLT-4 leukemia; 35.2 µM in the test with NCI-H460 lung; 50.9 µM in the test with MALME-3M melanoma; more than 56.2 µM in the test on HCC-2998 colon; more than 56 µM in the test on SK-MEL-28 melanoma. In addition, the TGI is more than 100 µM in the test on COLO 205 colon, more than 51 µM in the test on IGROV1 ovarian, more than 58.2 µM in the test on ACHN renal and more than 64.2 µM with M14 melanoma.
In the case of `O=C1CC(S(=O)(=O)O)C=C1Nc1cccc(Cl)c1` (centres undefined), the TGI in the test with A498 renal, in the test on MOLT-4 leukemia, with NCI-H460 lung, in the test on MALME-3M melanoma, with HCC-2998 colon and with SK-MEL-28 melanoma was more than 100 µM in each case. In addition, the TGI in the test on COLO 205 colon, in the test with IGROV1 ovarian, with ACHN renal and with M14 melanoma was more than 100 µM throughout.
On to `CN(C)c1ccc2c(c1)OC(N)=C(C#N)C2c1ccc2c(c1)CCO2` (centres undefined), for which the GI50 is less than 0.0272 µM in the test on A498 renal; 0.3 µM with MOLT-4 leukemia; less than 0.0231 µM with NCI-H460 lung; 14.9 µM with MALME-3M melanoma; 0.469 µM with HCC-2998 colon; 1.92 µM in the test with SK-MEL-28 melanoma. Moreover, the GI50 in the test with COLO 205 colon was 0.28 µM; with IGROV1 ovarian, 0.326 µM; with ACHN renal it was 0.0683 µM; with M14 melanoma, 0.0417 µM. For the same compound, the TGI is 5.59 µM in the test with A498 renal; 32.4 µM in the test on MOLT-4 leukemia; 18.3 µM in the test with NCI-H460 lung; 59.7 µM in the test on MALME-3M melanoma; more than 100 µM in the test on HCC-2998 colon; 29.5 µM in the test with SK-MEL-28 melanoma. Besides, the TGI is 3.39 µM in the test with COLO 205 colon, more than 100 µM in the test with IGROV1 ovarian, more than 67.1 µM in the test with ACHN renal and 11.4 µM in the test on M14 melanoma.
Turning to `CCCCN(CCCC)c1ccc(C(=N)c2ccc(N(CCCC)CCCC)cc2)cc1`, the GI50 in the test with A498 renal was 1.24 µM; in the test on MOLT-4 leukemia, 0.604 µM; in the test with NCI-H460 lung, 0.773 µM; in the test on MALME-3M melanoma it was 0.508 µM; in the test on HCC-2998 colon, 0.442 µM; with SK-MEL-28 melanoma, 1.05 µM. Moreover, the GI50 in the test with COLO 205 colon was 0.322 µM; in the test with IGROV1 ovarian, 1.04 µM; in the test on ACHN renal, 0.402 µM; in the test on M14 melanoma, 0.672 µM. The TGI in the test with A498 renal amounted to 2.56 µM; in the test with MOLT-4 leukemia it was 2.14 µM; in the test with NCI-H460 lung, 2.13 µM; with MALME-3M melanoma it was 2.12 µM; with HCC-2998 colon, 1.65 µM; in the test on SK-MEL-28 melanoma, 2.41 µM. Moreover, the TGI in the test with COLO 205 colon was 1.05 µM; with IGROV1 ovarian it was 2.66 µM; in the test on ACHN renal it was 1.48 µM; in the test on M14 melanoma, 2.09 µM.
In the case of `CN1CC[C@@H](c2c(O)cc(O)c3c(=O)cc(-c4ccccc4Cl)oc23)[C@@H]1CO`, the GI50 with A498 renal is 0.215 µM; in the test on MOLT-4 leukemia, 0.295 µM; in the test with NCI-H460 lung, 0.318 µM; in the test on MALME-3M melanoma, 0.361 µM; in the test with HCC-2998 colon it was 0.36 µM; with SK-MEL-28 melanoma it was 0.27 µM. The GI50 in the test with COLO 205 colon is 0.262 µM; in the test with IGROV1 ovarian, 0.282 µM; in the test with ACHN renal, 0.294 µM; with M14 melanoma, 0.331 µM. For the same compound, the TGI is 0.553 µM in the test with A498 renal; more than 3.79 µM in the test on MOLT-4 leukemia; more than 10 µM with NCI-H460 lung; 1.58 µM with MALME-3M melanoma; 3.67 µM with HCC-2998 colon; 1.24 µM with SK-MEL-28 melanoma. Also, the TGI with COLO 205 colon is 0.785 µM; in the test with IGROV1 ovarian, more than 10 µM; in the test with ACHN renal, more than 10 µM; with M14 melanoma it was 1.26 µM.
For `COc1c(Cl)cc(NC(=S)C#N)cc1Cl`, the TGI in the test with A498 renal was 44.5 µM; in the test with MOLT-4 leukemia, more than 100 µM; in the test on NCI-H460 lung it was 68.2 µM; in the test on MALME-3M melanoma, 59.6 µM; in the test on HCC-2998 colon, 32.6 µM; in the test on SK-MEL-28 melanoma it was more than 71.4 µM. Also, the TGI in the test on COLO 205 colon is 32.2 µM; in the test with IGROV1 ovarian, more than 82.6 µM; with ACHN renal it was more than 80.1 µM; with M14 melanoma it was 64.4 µM.
Take `COc1ccc(C(=O)c2cc3c(N)c(C(=O)Nc4cccc5ccccc45)sc3nc2C)cc1`: the GI50 is 0.119 µM in the test on A498 renal; 0.308 µM in the test on MOLT-4 leukemia; 0.18 µM in the test on NCI-H460 lung; 0.378 µM with MALME-3M melanoma; 0.424 µM with HCC-2998 colon; more than 50 µM in the test on SK-MEL-28 melanoma. Moreover, the GI50 is 0.209 µM with COLO 205 colon, 0.268 µM in the test on IGROV1 ovarian, 0.364 µM in the test on ACHN renal and 0.166 µM with M14 melanoma. In addition, the TGI in the test on A498 renal is 0.764 µM; in the test with MOLT-4 leukemia it was more than 50 µM; in the test on NCI-H460 lung, more than 22.5 µM; with MALME-3M melanoma it was more than 50 µM; in the test with HCC-2998 colon, more than 50 µM; with SK-MEL-28 melanoma, more than 50 µM. Also, the TGI in the test with COLO 205 colon is more than 13.3 µM; in the test with IGROV1 ovarian, more than 50 µM; in the test with ACHN renal, more than 50 µM; in the test with M14 melanoma it was more than 50 µM.
On to `O=CN/C=C/c1ccc(O)c(O)c1`, for which the TGI in the test with A498 renal, in the test with MOLT-4 leukemia, with NCI-H460 lung, in the test with MALME-3M melanoma, with HCC-2998 colon and in the test on SK-MEL-28 melanoma was more than 100 µM in each case. For the same compound, the TGI in the test on COLO 205 colon, with IGROV1 ovarian, in the test on ACHN renal and in the test with M14 melanoma was more than 100 µM throughout.
Turning to `O=CC1CCCc2ccccc21` (centres undefined), the TGI in the test with A498 renal, with MOLT-4 leukemia, in the test on NCI-H460 lung, in the test on MALME-3M melanoma, with HCC-2998 colon and with SK-MEL-28 melanoma was more than 100 µM each time. Besides, the TGI is more than 61.4 µM in the test on COLO 205 colon, more than 100 µM in the test on IGROV1 ovarian, more than 100 µM with ACHN renal and more than 100 µM in the test on M14 melanoma.
Regarding `COc1cccc(-n2ncc3c(N/N=C/c4ccncc4)ncnc32)c1`, the GI50 in the test with A498 renal was 0.326 µM; in the test with MOLT-4 leukemia, more than 25 µM; in the test with NCI-H460 lung, 2.57 µM; with MALME-3M melanoma, more than 25 µM; in the test with HCC-2998 colon it was more than 25 µM; in the test on SK-MEL-28 melanoma it was more than 25 µM. Further, the GI50 with COLO 205 colon is 11.5 µM; in the test on IGROV1 ovarian, 7.95 µM; in the test with ACHN renal, 0.985 µM; with M14 melanoma, 3.56 µM. For the same compound, the TGI in the test on MOLT-4 leukemia, in the test on NCI-H460 lung, in the test with MALME-3M melanoma, in the test with HCC-2998 colon, in the test on SK-MEL-28 melanoma and in the test with COLO 205 colon was more than 25 µM in each case. For the same compound, the TGI with IGROV1 ovarian, in the test with ACHN renal and with M14 melanoma was more than 25 µM each time.
As to `Cc1ccc(N2C(=O)C3C=CC(n4[nH]c(=O)n(Cc5ccccc5)c4=O)CC3C2=O)cc1` (centres undefined), the TGI with A498 renal, in the test on MOLT-4 leukemia, in the test on NCI-H460 lung, in the test with MALME-3M melanoma, in the test with HCC-2998 colon and with SK-MEL-28 melanoma was more than 100 µM throughout. Besides, the TGI with COLO 205 colon, with IGROV1 ovarian, in the test on ACHN renal and in the test on M14 melanoma was more than 100 µM each time.
In the case of `Cn1cc(C2=C(c3cccc(OCC(O)CO)c3)C(=O)NC2=O)c2ccccc21` (centres undefined), the GI50 in the test with A498 renal, in the test with MOLT-4 leukemia, in the test on NCI-H460 lung, in the test on MALME-3M melanoma, with HCC-2998 colon and in the test with SK-MEL-28 melanoma was more than 25 µM in each case. Also, the GI50 in the test on COLO 205 colon, in the test with IGROV1 ovarian, in the test with ACHN renal and with M14 melanoma was more than 25 µM each time. The TGI in the test on A498 renal, in the test on MOLT-4 leukemia, in the test with NCI-H460 lung, in the test with MALME-3M melanoma, with HCC-2998 colon and in the test on SK-MEL-28 melanoma was more than 25 µM each time. For the same compound, the TGI in the test on COLO 205 colon, in the test with IGROV1 ovarian, in the test on ACHN renal and in the test on M14 melanoma was more than 25 µM in each case.
`COc1ccc(C(=O)C(c2ccc(OC)cc2)C2(O)C(=O)Nc3c2ccc(Cl)c3C)cc1` (centres undefined): the TGI in the test on A498 renal, in the test with MOLT-4 leukemia, in the test with NCI-H460 lung, in the test with MALME-3M melanoma, with HCC-2998 colon and with SK-MEL-28 melanoma was more than 100 µM throughout. Further, the TGI in the test with COLO 205 colon, in the test on IGROV1 ovarian, in the test with ACHN renal and with M14 melanoma was more than 100 µM throughout.
Consider `COC(=O)C1=CC2C(=O)OC1CC2C#N` (centres undefined), for which the TGI in the test on A498 renal, in the test on MOLT-4 leukemia, with NCI-H460 lung, in the test with MALME-3M melanoma, in the test on HCC-2998 colon and in the test on SK-MEL-28 melanoma was more than 100 µM throughout. Further, the TGI in the test with COLO 205 colon, in the test with IGROV1 ovarian, in the test on ACHN renal and in the test on M14 melanoma was more than 100 µM throughout.
